# From patent publication US6458872B1, “Benzotriazole UV absorbers having enhanced durability” (Ciba Specialty Chemicals Corporation, priority 1997, dated 2002)
# Entries after “also recorded” stand apart in the source; their conditions may differ.
# Legend:
# [1] = UV absorption data (Example 74); format: physicochemical; details: for Absorbance @ 375 nm: 20 mg/l concentrations, not the molar extinction values
# Description: In the following examples the absorbance at 375 nm is reported for 20 mg/l concentrations. This is not the molar extinction values.
# [2] = Yellowness color of solutions in butyl acetate, Macbeth Color-Eye (Example 75); format: physicochemical; details: 30 mg/100 mL in butyl acetate; for DE: corresponding Yellowness Index value; for b: yellowness, Macbeth Color-Eye
# Description: The following examples show the difference in color between some of the instant compounds as measured by a Macbeth Color-Eye instrument at a concentration of 30 mg/100 mL in butyl acetate. […] In the table, the compounds are listed by increasing b value. The instrument measures yellowness as b and DE is the corresponding Yellowness Index value.
# [3] = Durability in polycarbonate film, 2000 hours (Example 81); format: physicochemical; details: for % Loss / Absorbance (max) Loss units: 2000 hrs; for % Loss / Absorbance (max) Loss units / Absorbance (max) 2000 hrs: BB 2.19 wt %, J 1.81 wt %; for Absorbance (max) 0 hrs: BB 2.19 wt % (352 nm), J 1.81 wt % (344 nm)
# Description: The durability of representative benzotriazoles in thermoplastic substrates is determined by incorporating various test compounds into solvent cast films of poly(vinyl chloride), polycarbonate and polystyrene resins. The free standing films are mounted into cardboard holders, secured in metal frames and exposed in an Atlas […] […] Loss of UV absorber is determined by monitoring the loss of diagnostic UV absorption as described earlier. Performance is measured by a change in color or the physical integrity of the film. Polycarbonate flake (LEXAN® 145, General Electric) is dissolved in methylene chloride at room temperature along with between 1 and 3% by weight of test benzotriazole, based on the polycarbonate. Films are cast using a calibrated drawdown bar to prepare 1 mil thick film after drying. […] Weather-meter.
# [4] = UV absorption data (Example 74); format: physicochemical; set-up: ε @ λ max: unit not given beside the values
# [5] = Loss of UV absorber from high solids thermoset acrylic clear coat, Xenon Arc Weather-Ometer (Example 77); format: physicochemical; details: after 1211 hours Xenon arc exposure; clear coat with 1% hindered amine; UV absorber at 5 mmol % by weight
# Description: To ascertain the effect on thermal durability and loss rate from a high solids thermoset acrylic coating of various 2H-benzotriazole UV absorbers substituted by a variety of electron withdrawing and electron donating groups, the following tests are carried out.
# A high solids thermoset acrylic clear coat is prepared by mixing an experimental acrylic polyol resin and hexamethoxymethylmelamine (Resimene® 747, Monsanto) at a solids ratio of 60/40. The dodecylbenzene sulfonic acid catalyst (Nacure® 5225; King Industries) is added at 0.70% by weight. A flow aid Modaflow® (Monsanto) is added at 0.25% by weight to form a model acrylic melamine resin system.
# The model clear coat is reduced with xylene to a viscosity of 26-27 second using a Zahn #2 cup and applied via a conventional air spray at 50 psi (3.5 Kg/cm^2) over a 1″×3″ (2.54 cm×7.62 cm) quartz slide. Cure is achieved by baking the slide for 30 minutes at 260° F. (127° C.). The clear coat is stabilized with 1% by weight of a hindered amine light stabilizer, bis-(1-octyloxy-2,2,6,6-tetramethylpiperidin-4-yl)sebacate, (TINUVIN® 123, Ciba-Geigy). The various test benzotriazole UV absorbers are incorporated at the 5 mmol % by weight in the clear coat. The film thickness on the quartz slides range from 1.15 to 1.41 mils (0.029 to 0.036 mm).
# The films on the quartz slides are weathered according to the following conditions in Xenon Arc Weather-Ometer with a controlled irradiance at 6500 W, using inner quartz and outer borosilicate S-type filter. The irradiation cycle is as follows: 40 minutes of straight irradiation with no water spray, followed by 20 minutes of light plus front spray, followed by 60 minutes of light irradiation and finally by 60 minutes dart plus rear spray (condensation). The setting is at 0.55 W/M^2 at 340 nm, 1.98 kJ/hour. In the light cycle the black panel temperature is controlled at 70±2° C. The relative humidity in the light cycle is in the range of 50-55% and in the dark cycle 100%. The absorbance of the long wavelength UV band as a function of Xenon arc weathering hours are recorded in the table below.
# To follow the loss of UV absorbers from the clear coats, UV spectra are measured initially and after weathering at regular time intervals. The UV spectrophotometer measures absorbance linearly up to 5.5 absorbance units using a reference beam attenuation technique.
# This is tested by following the ratio of absorbance of the band at about 300 nm and the band at about 340 nm.
# The data in the table below are based on formula A after 1211 hours of exposure of the clear coats containing the test benzotriazole UV absorbers.
# [6] = Loss of UV absorber from high solids thermoset acrylic melamine clear coat, Xenon-Arc X180 cycle (Example 78); format: physicochemical
# Source text: Following the general procedure of Example 77, a number of additional benzotriazole test compounds are incorporated into a high solids thermoset acrylic melamine resin at such concentrations between 1.93 and 3% by weight to give equal molar concentrations of test benzotriazole in equal film thickness, and sufficient to give a starting absorbance of approximately 2.0 absorbance units.
# The test discs are exposed in a Xenon-Arc Weather-Ometer at X180 cycle (0.45 Watts/M^2). The initial UV absorbance is measured followed by measurements at roughly 250 hour intervals for the first 2000 hours and every 500 hours thereafter. Each clear coat also contains 1% by weight of a hindered amine light stabilizer, bis-(1-octyloxy-2,2,6,6-tetramethylpiperidin-4-yl) sebacate, as well.
# [7] = Loss of UV absorber from high solids thermoset acrylic melamine resin, 1002 hours (Example 79); format: physicochemical; details: 1002 hours exposure; starting absorbance approximately 2.0
# Description: Following the general procedure of Example 77, representative benzotriazole test compounds are incorporated into a high solids thermoset acrylic melamine resin at concentrations between 1.93 and 3% by weight to give equal molar concentrations of the test benzotriazole in equal film thickness and sufficient to give a starting absorbance of approximately 2.0 absorbance units. The test samples are exposed as described in Example 77 for 1002 hours.
# [8] = after 1253 hours of exposure, starting absorbance approximately 2.0, 1% hindered amine
smiles,measurement,setting,value
"CC(C)(C)CC(C)(C)c1ccc(O)c(-n2nc3ccc(C(F)(F)F)cc3n2)c1 [BB, 5-trifluoromethyl-2-(2-hydroxy-5-tert-octylphenyl)-2H-benzotriazole]",Absorbance @ 375 nm,[1],0.33
same,DE,[2],0.27
same,b,[2],0.20
same,% Loss,[3],0.6%
same,Absorbance (max) Loss units,[3],0.016
same,Absorbance (max) 0 hrs,[3],2.654
same,Absorbance (max) 2000 hrs,[3],2.638
same,ε @ λ max,[4],"14,000"
same,λ max nm,[4],348 nm
"Oc1ccc(C(F)(F)F)cc1-n1nc2ccccc2n1 [EE, 2-(2-hydroxy-5-trifluoromethylphenyl)-2H-benzotriazole]",Absorbance @ 375 nm,[1],0.03
same,red region absorbance,"[1]; in words, upper regions (above 350 nm) of the UV spectra",poor red region absorbance
same,melting point,,119 to 120 °C
same,ε @ λ max,[4],"20,700"
same,λ max nm,[4],328 nm
"CC(C)(C)c1cc(CCC(=O)O)cc(-n2nc3ccc(C(F)(F)F)cc3n2)c1O [Example 39, 3-(5-Trifluoromethyl-2H-benzotriazol-2-yl)-5-tert-butyl-4-hydroxyhydrocinnamic Acid]",melting point,,166 °C
CC(C)(C)CC(C)(C)c1ccc(O)c(-n2nc3ccccc3n2)c1 [J],Units Absorbance Loss,[5],0.4134
same,% Loss,[3],7.5%
same,Absorbance (max) Loss units,[3],0.184
same,Absorbance (max) 0 hrs,[3],2.454
same,Absorbance (max) 2000 hrs,[3],2.270
"CC(C)(C)CC(C)(C)c1cc(-n2nc3ccccc3n2)c(O)c(C(C)(C)c2ccccc2)c1 [Q, 2-(2-hydroxy-3-α-cumyl-5-tert-octylphenyl)-2H-benzotriazole]",Absorbance @ 375 nm,[1],0.28
same,DE,[2],0.07
same,b,[2],−0.02
same,Units Absorbance Loss,[5],0.2492
same,Units Absorbance Loss,[6]; [8],0.2351
same,Units Absorbance Loss,[6]; after 1264 hours of exposure,0.2293
same,Units Absorbance Loss,[6]; after 1489 hours of exposure,0.287
same,Units Absorbance Loss,[6]; after 1518 hours of exposure,0.2662
same,Units Absorbance Loss,[6]; after 2521 hours of exposure,0.4054
same,Units of Absorbance Loss,[7],0.28
same,ε @ λ max,[4],"16,500"
same,λ max nm,[4],345 nm
"CC(C)(C)CC(C)(C)c1cc(-n2nc3ccc(C(F)(F)F)cc3n2)c(O)c(C(C)(C)c2ccccc2)c1 [S, 5-trifluoromethyl-2-(2-hydroxy-3-α-cumyl-5-tert-octylphenyl)-2H-benzotriazole]",Absorbance @ 375 nm,[1],0.35
same,DE,[2],1.28
same,b,[2],1.05
same,Units Absorbance Loss,[6]; [8],0.1271
same,Units Absorbance Loss,[6]; after 1264 hours of exposure,0.0921
same,Units Absorbance Loss,[6]; after 1489 hours of exposure,0.1547
same,Units Absorbance Loss,[6]; after 1518 hours of exposure,0.1116
same,Units Absorbance Loss,[6]; after 2521 hours of exposure,0.2192
same,durability (low loss rate absorbance values after exposure),"[6]; in words, summary of the tables of Example 78",significantly more durable; also recorded: especially durable
same,ε @ λ max,[4],"15,000"
same,λ max nm,[4],348 nm
"CCCCOc1ccc(-n2nc3ccccc3n2)c(O)c1 [Z, 2-(2-hydroxy-4-n-butoxyphenyl)-2H-benzotriazole]",Units of Absorbance Loss,[7],1.58
